From US10167346B2, “Compositions and methods for making alpha-(1,2)-branched alpha-(1,6) oligodextrans” (TATE & LYLE INGREDIENTS FRANCE SAS, priority 2009, dated 2019)

Tested on: Caenorhabditis elegans
Assay: lipid content in the in vivo model Caenorhabditis elegans
Details: positive control, concentration not given
Method: Oligodextrans according to the present invention were evaluated for their effect on lipid content using the in vivo model Caenorhabditis elegans. The substrates evaluated were TLD-1000 (unbranched 1 kDa dextran) and TLD-1030 (1 kDa dextran+32% α-1,2). […] A negative control (DMSO) and positive control (Orlistat) were also included. Each substrate was assayed four times with a total of 120 worms per substrate and concentration.

## CCCCCCCCCCC[C@@H](C[C@@H]1OC(=O)[C@H]1CCCCCC)OC(=O)[C@H](CC(C)C)NC=O [Orlistat]
  reduction in lipid content: > 40%
